Test results: patent US7964531B2, “3-phenoxy-4-pyridazinol derivatives and herbicidal composition containing the same” (Mitsui Chemicals Agro, Inc., priority 2001, dated 2011)

Legend:
Assay type in all cases: in vivo
Conditions in all cases: wettable powder applied 3 days after transplanting, judged after 25 days
Cyperus serotinus = experiment: Test Example 1: herbicidal effects, paddy-field pot test
How it was run: (§1)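 Herbicidal effect and crop injury were rated 0 (0-10% inhibition) to 5 (91-100%) 25 days after treatment. Water-diluted wettable powder was applied to flooded greenhouse pots 3 days after transplanting 2.2-leaf rice. The pots held seeded weeds and sprouted Cyperus serotinus tubers.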

Scirpus joncoides = experiment: as above
How it was run: as §1

[1] = system: annual broad-leaved weeds (Lindernia spp., Rotala indica); experiment: as above
How it was run: as §1

[2] = system: barnyardgrass (Echinochloa oryzicola Vasing.); experiment: as above
How it was run: as §1

[3] = system: transplanted paddy-field rice; experiment: Test Example 1: crop injury against transplanted paddy-field rice
How it was run: as §1

Row | Compound | Herbicidal effects Cyperus serotinus (Cyperus serotinus; chemical dosage 10 g/a) | Herbicidal effects Cyperus serotinus (Cyperus serotinus; chemical dosage 20 g/a) | Herbicidal effects Scirpus joncoides (Scirpus joncoides; chemical dosage 10 g/a) | Herbicidal effects Scirpus joncoides (Scirpus joncoides; chemical dosage 20 g/a) | Herbicidal effects Broad leaf ([1]; chemical dosage 10 g/a) | Herbicidal effects Broad leaf ([1]; chemical dosage 20 g/a) | Herbicidal effects Barnyard grass ([2]; chemical dosage 10 g/a) | Herbicidal effects Barnyard grass ([2]; chemical dosage 20 g/a) | Crop injury against transplanted rice ([3]; chemical dosage 10 g/a) | Crop injury against transplanted rice ([3]; chemical dosage 20 g/a) | other results
1 | CC(C)Oc1ccccc1Oc1nnc(Cl)cc1O [Example 123] | 4 (Growth inhibition rate; 71 to 90%) | 5 (Growth inhibition rate; 91 to 100%) | 3 (Growth inhibition rate; 51 to 70%) | 4 (Growth inhibition rate; 71 to 90%) | 5 (Growth inhibition rate; 91 to 100%) | 5 (Growth inhibition rate; 91 to 100%) | 0 (Growth inhibition rate; 0 to 10%) | 1 (Growth inhibition rate; 11 to 30%) | 0 (Growth inhibition rate; 0 to 10%) | 0 (Growth inhibition rate; 0 to 10%) | –
2 | Oc1cc(Cl)nnc1Oc1ccccc1OC(F)(F)F [Example 125] | 4 (Growth inhibition rate; 71 to 90%) | 5 (Growth inhibition rate; 91 to 100%) | 3 (Growth inhibition rate; 51 to 70%) | 4 (Growth inhibition rate; 71 to 90%) | 5 (Growth inhibition rate; 91 to 100%) | 5 (Growth inhibition rate; 91 to 100%) | 1 (Growth inhibition rate; 11 to 30%) | 2 (Growth inhibition rate; 31 to 50%) | 0 (Growth inhibition rate; 0 to 10%) | 0 (Growth inhibition rate; 0 to 10%) | –
3 | CSc1ccccc1Oc1nnc(Cl)cc1O [Example 129] | – | – | – | – | – | – | – | – | – | – | Herbicidal effects Cyperus serotinus (Cyperus serotinus; chemical dosage 12.5 g/a): 4 (Growth inhibition rate; 71 to 90%); Herbicidal effects Cyperus serotinus (Cyperus serotinus; chemical dosage 25 g/a): 5 (Growth inhibition rate; 91 to 100%); Herbicidal effects Scirpus joncoides (Scirpus joncoides; chemical dosage 12.5 g/a): 3 (Growth inhibition rate; 51 to 70%); Herbicidal effects Scirpus joncoides (Scirpus joncoides; chemical dosage 25 g/a): 4 (Growth inhibition rate; 71 to 90%); Herbicidal effects Broad leaf ([1]; chemical dosage 12.5 g/a): 5 (Growth inhibition rate; 91 to 100%); Herbicidal effects Broad leaf ([1]; chemical dosage 25 g/a): 5 (Growth inhibition rate; 91 to 100%); Herbicidal effects Barnyard grass ([2]; chemical dosage 12.5 g/a): 1 (Growth inhibition rate; 11 to 30%); Herbicidal effects Barnyard grass ([2]; chemical dosage 25 g/a): 2 (Growth inhibition rate; 31 to 50%); Crop injury against transplanted rice ([3]; chemical dosage 12.5 g/a): 0 (Growth inhibition rate; 0 to 10%); Crop injury against transplanted rice ([3]; chemical dosage 25 g/a): 0 (Growth inhibition rate; 0 to 10%)
4 | Oc1cc(Cl)nnc1Oc1cccc(F)c1F [Example 154] | 5 (Growth inhibition rate; 91 to 100%) | 5 (Growth inhibition rate; 91 to 100%) | 3 (Growth inhibition rate; 51 to 70%) | 5 (Growth inhibition rate; 91 to 100%) | 5 (Growth inhibition rate; 91 to 100%) | 5 (Growth inhibition rate; 91 to 100%) | 1 (Growth inhibition rate; 11 to 30%) | 2 (Growth inhibition rate; 31 to 50%) | 0 (Growth inhibition rate; 0 to 10%) | 0 (Growth inhibition rate; 0 to 10%) | –
5 | Cc1cccc(Oc2nnc(Cl)cc2O)c1C1CC1 [Example 166] | 5 (Growth inhibition rate; 91 to 100%) | 5 (Growth inhibition rate; 91 to 100%) | 5 (Growth inhibition rate; 91 to 100%) | 5 (Growth inhibition rate; 91 to 100%) | 5 (Growth inhibition rate; 91 to 100%) | 5 (Growth inhibition rate; 91 to 100%) | 0 (Growth inhibition rate; 0 to 10%) | 1 (Growth inhibition rate; 11 to 30%) | 0 (Growth inhibition rate; 0 to 10%) | 0 (Growth inhibition rate; 0 to 10%) | –
6 | CC1CCc2cccc(Oc3nnc(Cl)cc3O)c21 (centres unmarked) [Example 172] | 4 (Growth inhibition rate; 71 to 90%) | 5 (Growth inhibition rate; 91 to 100%) | 5 (Growth inhibition rate; 91 to 100%) | 5 (Growth inhibition rate; 91 to 100%) | 5 (Growth inhibition rate; 91 to 100%) | 5 (Growth inhibition rate; 91 to 100%) | 5 (Growth inhibition rate; 91 to 100%) | 5 (Growth inhibition rate; 91 to 100%) | 0 (Growth inhibition rate; 0 to 10%) | 0 (Growth inhibition rate; 0 to 10%) | –
7 | Oc1cc(Cl)nnc1Oc1cccc2c1CCCC2 [Example 179] | 5 (Growth inhibition rate; 91 to 100%) | 5 (Growth inhibition rate; 91 to 100%) | 3 (Growth inhibition rate; 51 to 70%) | 4 (Growth inhibition rate; 71 to 90%) | 4 (Growth inhibition rate; 71 to 90%) | 4 (Growth inhibition rate; 71 to 90%) | 0 (Growth inhibition rate; 0 to 10%) | 1 (Growth inhibition rate; 11 to 30%) | 0 (Growth inhibition rate; 0 to 10%) | 0 (Growth inhibition rate; 0 to 10%) | –
8 | Oc1cc(Cl)nnc1Oc1cccc2ccccc12 [Example 180] | – | – | – | – | – | – | – | – | – | – | Herbicidal effects Cyperus serotinus (Cyperus serotinus; chemical dosage 12.5 g/a): 5 (Growth inhibition rate; 91 to 100%); Herbicidal effects Cyperus serotinus (Cyperus serotinus; chemical dosage 25 g/a): 5 (Growth inhibition rate; 91 to 100%); Herbicidal effects Scirpus joncoides (Scirpus joncoides; chemical dosage 12.5 g/a): 2 (Growth inhibition rate; 31 to 50%); Herbicidal effects Scirpus joncoides (Scirpus joncoides; chemical dosage 25 g/a): 3 (Growth inhibition rate; 51 to 70%); Herbicidal effects Broad leaf ([1]; chemical dosage 12.5 g/a): 5 (Growth inhibition rate; 91 to 100%); Herbicidal effects Broad leaf ([1]; chemical dosage 25 g/a): 5 (Growth inhibition rate; 91 to 100%); Herbicidal effects Barnyard grass ([2]; chemical dosage 12.5 g/a): 0 (Growth inhibition rate; 0 to 10%); Herbicidal effects Barnyard grass ([2]; chemical dosage 25 g/a): 0 (Growth inhibition rate; 0 to 10%); Crop injury against transplanted rice ([3]; chemical dosage 12.5 g/a): 0 (Growth inhibition rate; 0 to 10%); Crop injury against transplanted rice ([3]; chemical dosage 25 g/a): 0 (Growth inhibition rate; 0 to 10%)
9 | Oc1cc(Cl)nnc1Oc1cccc2c1CCO2 [Example 181] | 4 (Growth inhibition rate; 71 to 90%) | 5 (Growth inhibition rate; 91 to 100%) | 3 (Growth inhibition rate; 51 to 70%) | 4 (Growth inhibition rate; 71 to 90%) | 5 (Growth inhibition rate; 91 to 100%) | 5 (Growth inhibition rate; 91 to 100%) | 1 (Growth inhibition rate; 11 to 30%) | 2 (Growth inhibition rate; 31 to 50%) | 0 (Growth inhibition rate; 0 to 10%) | 0 (Growth inhibition rate; 0 to 10%) | –
10 | CC1COc2cccc(Oc3nnc(Cl)cc3O)c21 (centres unmarked) [Example 182] | – | 5 (Growth inhibition rate; 91 to 100%) | – | 4 (Growth inhibition rate; 71 to 90%) | – | 5 (Growth inhibition rate; 91 to 100%) | – | 2 (Growth inhibition rate; 31 to 50%) | – | 0 (Growth inhibition rate; 0 to 10%) | –
11 | Oc1cc(Cl)nnc1Oc1cccc2occc12 [Example 183] | 5 (Growth inhibition rate; 91 to 100%) | 5 (Growth inhibition rate; 91 to 100%) | 5 (Growth inhibition rate; 91 to 100%) | 5 (Growth inhibition rate; 91 to 100%) | 5 (Growth inhibition rate; 91 to 100%) | 5 (Growth inhibition rate; 91 to 100%) | 1 (Growth inhibition rate; 11 to 30%) | 2 (Growth inhibition rate; 31 to 50%) | 0 (Growth inhibition rate; 0 to 10%) | 0 (Growth inhibition rate; 0 to 10%) | –
12 | Cc1coc2cccc(Oc3nnc(Cl)cc3O)c12 [Example 184] | – | 5 (Growth inhibition rate; 91 to 100%) | – | 4 (Growth inhibition rate; 71 to 90%) | – | 5 (Growth inhibition rate; 91 to 100%) | – | 0 (Growth inhibition rate; 0 to 10%) | – | 0 (Growth inhibition rate; 0 to 10%) | –
13 | Oc1cc(Cl)nnc1Oc1cccc2sccc12 [Example 185] | – | – | – | – | – | – | – | – | – | – | Herbicidal effects Cyperus serotinus (Cyperus serotinus; chemical dosage 5 g/a): 3 (Growth inhibition rate; 51 to 70%); Herbicidal effects Scirpus joncoides (Scirpus joncoides; chemical dosage 5 g/a): 2 (Growth inhibition rate; 31 to 50%); Herbicidal effects Broad leaf ([1]; chemical dosage 5 g/a): 3 (Growth inhibition rate; 51 to 70%); Herbicidal effects Barnyard grass ([2]; chemical dosage 5 g/a): 1 (Growth inhibition rate; 11 to 30%); Crop injury against transplanted rice ([3]; chemical dosage 5 g/a): 0 (Growth inhibition rate; 0 to 10%)
14 | Oc1cc(Cl)nnc1Oc1cccc2c1OCC2 [Example 189] | 5 (Growth inhibition rate; 91 to 100%) | – | 5 (Growth inhibition rate; 91 to 100%) | – | 5 (Growth inhibition rate; 91 to 100%) | – | 3 (Growth inhibition rate; 51 to 70%) | – | 3 (Growth inhibition rate; 51 to 70%) | – | Herbicidal effects Cyperus serotinus (Cyperus serotinus; chemical dosage 5 g/a): 5 (Growth inhibition rate; 91 to 100%); Herbicidal effects Scirpus joncoides (Scirpus joncoides; chemical dosage 5 g/a): 4 (Growth inhibition rate; 71 to 90%); Herbicidal effects Broad leaf ([1]; chemical dosage 5 g/a): 5 (Growth inhibition rate; 91 to 100%); Herbicidal effects Barnyard grass ([2]; chemical dosage 5 g/a): 2 (Growth inhibition rate; 31 to 50%); Crop injury against transplanted rice ([3]; chemical dosage 5 g/a): 0 (Growth inhibition rate; 0 to 10%)
